From patent US7718651B2, “Inhibitors of FtsZ and uses thereof” (priority 2002, dated 2010)
Values after ≈ are worked out from the molar mass of the structure shown. Read-outs that look alike come from different tables or passages of the source.

Legend:
M. tuberculosis H37Rv [1] = assay: microbe, parasite or virus in culture; assay type: cell-based; details: for inhibition of growth at 12.5 µg/mL: Mycobacterium tuberculosis, at 12.5% μg/ml (so in the source), read-out: Primary Screen PI (% inhibition of growth); for inhibition of growth at 12.5 µg/mL / % Inh: M. tuberculosis H37Rv; for activity against M. tuberculosis H37Rv in the primary screen: in words; for % Inh: screen concentration 12.5 g/ml [sic], Table 8
M. tuberculosis H37Rv [2] = assay: MIC99 determination, BACTEC 460 radiometric system; assay type: cell-based
Vero cells = assay: Cytotoxicity in Vero cells (MTS assay); assay type: cell-based; details: Chlorocebus sabaeus
M. tuberculosis H37Ra = assay: MIC/MBC, colorimetric (alamar blue) microdilution broth assay; assay type: cell-based; details: Mycobacterium tuberculosis, H37RA, M. tuberculosis H37Ra, positive control; read-out: MIC
M. tuberculosis FtsZ [3] = target: T1, M. tuberculosis FtsZ (Mycobacterium tuberculosis, UniProt P9WN95); assay: biochemical; details: read-out: FtsZ polymerization ID50
M. tuberculosis FtsZ [4] = target: T1, M. tuberculosis FtsZ; assay: biochemical; details: 100 μM compound, Table 6; read-out: M. tuberculosis FtsZ GTP Hydrolysis % Inhibition (100 μM)
bovine tubulin = assay: Light scattering assay for tubulin polymerization; assay type: biochemical; details: read-out: tubulin polymerization ID50
[5] = Mycobacterium tuberculosis, M. tuberculosis H37Rv, Table 3, read-out: Screen 2 MIC99
[6] = 72 h, Vero cells, 72 h exposure, Table 3, read-out: IC50
[7] = Vero cells, Table 8, read-out: IC50
[8] = Mycobacterium tuberculosis, M. tuberculosis H37Rv, Table 8, read-out: MIC
[9] = Mycobacterium tuberculosis, H37RV

T1 sequence (P9WN95 whole entry, looked up): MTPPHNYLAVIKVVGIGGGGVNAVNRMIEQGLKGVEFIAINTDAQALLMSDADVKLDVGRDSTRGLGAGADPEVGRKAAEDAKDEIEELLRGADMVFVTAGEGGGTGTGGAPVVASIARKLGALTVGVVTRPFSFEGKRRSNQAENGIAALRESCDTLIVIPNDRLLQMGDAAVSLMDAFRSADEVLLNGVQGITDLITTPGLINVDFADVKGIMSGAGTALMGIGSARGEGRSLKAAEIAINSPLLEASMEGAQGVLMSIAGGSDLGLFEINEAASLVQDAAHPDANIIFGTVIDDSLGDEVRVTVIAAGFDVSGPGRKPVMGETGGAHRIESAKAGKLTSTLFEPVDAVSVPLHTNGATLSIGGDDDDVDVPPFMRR

Structure (SMILES) | % Inh (M. tuberculosis H37Rv [1]) [%] | IC50 (Vero cells; [7]) [µg/mL] | MIC (M. tuberculosis H37Rv [2]; [8]) [µg/mL] | also measured
CCOC(=O)Nc1cc(NCc2ccc(S(N)(=O)=O)cc2)c2nc(-c3ccccc3)c(-c3ccccc3)nc2n1 [Compound 4427-026-15, [2,3-Diphenyl-8-(4-sulfamoyl-benzylamino)-pyrido[2,3-b]pyrazin-6-yl]-carbamic acid ethyl ester] |  |  |  | inhibition of growth at 12.5 µg/mL (M. tuberculosis H37Rv [1]): 97%; activity against M. tuberculosis H37Rv in the primary screen (M. tuberculosis H37Rv [1]): demonstrated activity; MIC99 (M. tuberculosis H37Rv [2]; [5]): 0.39 µg/mL; IC50 (Vero cells; [6]): > 6.25 µg/mL
CCOC(=O)Nc1cc(NC(C)CCCN(CC)CC)c2nc(-c3ccccc3)c(-c3ccccc3)nc2n1 (stereo not shown) [Compound A1] | 100 | 4.3 (≈ 8.16 µM) |  | MIC (M. tuberculosis H37Rv [2]; M. tuberculosis H37Rv, Table 8): 0.2 µg/mL (≈ 0.38 µM)
CCOC(=O)Nc1cc2c(c(N)n1)N=C(c1ccccc1)CCN2 [Compound A2] | 100 | > 200 | 6.25 (≈ 19.2 µM) | 
CCOC(=O)Nc1cc(NC(C)CCCN(CC)CC)c2ncc(-c3ccc(Cl)c(Cl)c3)nc2n1.Cl.Cl (stereo not shown) [Compound A7] | 99 |  | 3.13 | IC50 (Vero cells): 1.89 µg/mL
CCOC(=O)Nc1cc(N)c(N)c(NC(C)C(O)c2ccccc2)n1 (stereo not shown) [Compound A10] | 99 | > 200 | 12.5 (≈ 36.2 µM) | 
CC(C)OC(=O)Nc1cc2c(c(N)n1)N=C(c1ccccc1)[C@H](C)N2 [Compound A11] | 99 | 1.51 (≈ 4.45 µM) | 12.5 (≈ 36.8 µM) | 
CCOC(=O)Nc1cc2c(c(N)n1)N=C(c1ccc3c(c1)OCO3)[C@H](C)N2 [Compound A12] | 99 | 1.51 (≈ 4.09 µM) | 12.5 (≈ 33.8 µM) | 
CCOC(=O)Nc1cc(NC(C)CCCN(CC)CC)c2nc(-c3ccccc3)c(-c3ccccc3)nc2n1.Cl (stereo not shown) [Compound A21] | 98 |  | 0.1 | IC50 (Vero cells): 8.3 µg/mL
CCOC(=O)Nc1cc(NC(C)CCCN(CC)CC)c2ncc(-c3ccc(OC)cc3)nc2n1.Cl (stereo not shown) [Compound A22] | 98 |  | 1.56 | IC50 (Vero cells): 8.7 µg/mL
CCOC(=O)Nc1cc(NC(C)CCCN(CC)CC)c2ncc(-c3ccc(C(F)(F)F)cc3)nc2n1 (stereo not shown) [Compound A23] | 98 |  |  | MIC (M. tuberculosis H37Rv [2]; [9]): 6.25 µg/mL (≈ 12.1 µM); IC50 (Vero cells): 1.6 µg/mL (≈ 3.09 µM)
CCOC(=O)Nc1cc(NC(C)CCCN(CC)CC)c2nc(-c3ccc(F)cc3)cnc2n1 (stereo not shown) [Compound A25] | 98 |  |  | MIC (M. tuberculosis H37Rv [2]; [9]): 12.5 µg/mL (≈ 26.7 µM); IC50 (Vero cells): 6.8 µg/mL (≈ 14.5 µM)
C[C@@H]1Nc2cc(NC(=O)OCc3ccccc3)nc(N)c2N=C1c1ccccc1 [Compound A26] | 98 | 1.51 (≈ 3.9 µM) | 12.5 (≈ 32.3 µM) | 
CCOC(=O)Nc1cc(NCc2ccc(S(N)(=O)=O)cc2)c2nc(-c3ccccc3)c(-c3ccccc3)nc2n1 [Compound A33] | 97 | > 6.25 | 0.39 (≈ 0.703 µM) | 
CCOC(=O)Nc1cc(NC(C)CCCN(CC)CC)c2nc(-c3ccc(Cl)cc3)cnc2n1.Cl.Cl (stereo not shown) [Compound A34] | 97 |  | 6.25 | IC50 (Vero cells): 2.28 µg/mL
CCOC(=O)Nc1cc(NC(C)C(O)COc2ccccc2)c(N)c(N)n1 (stereo not shown) [Compound A35] | 97 | > 1000 | 12.5 (≈ 33.3 µM) | 
CCOC(=O)Nc1cc2[nH]c(-c3ccc4c(c3)OCO4)nc2c(NC(c2ccccc2)c2ccccc2)n1 [Compound A39] | 95 | > 200 | 1.56 (≈ 3.07 µM) | 
CCCCC1=Nc2c(cc(NC(=O)OCC)nc2N)NC1C (stereo not shown) [Compound A41] | 95 | 1.51 (≈ 4.94 µM) | 12.5 (≈ 40.9 µM) | 
CCOC(=O)Nc1cc(Nc2ccc(Cl)cc2)c2nccnc2n1 [Compound A43] | 94 |  | 6.25 (≈ 18.2 µM) | 
CCOC(=O)Nc1cc2c(c(N)n1)N=C(c1ccc(OC)cc1)C(C)N2 (stereo not shown) [Compound A44] | 94 | 1.53 (≈ 4.31 µM) | 12.5 (≈ 35.2 µM) | 
CCOC(=O)Nc1cc2[nH]c(-c3ccc(OC)cc3)nc2c(NC(c2ccccc2)c2ccccc2)n1 [Compound A46] | 93 | 189 (≈ 383 µM) | 3.13 (≈ 6.34 µM) | 
CCOC(=O)Nc1cc(NC/C(=N\O)C23CC4CC(CC(C4)C2)C3)c([N+](=O)[O-])c(N)n1 [Compound A47] | 93 |  | > 12.5 | 
CCOC(=O)Nc1cc(NC(C)CCCN(CC)CC)c2nc(-c3ccc([N+](=O)[O-])cc3)cnc2n1 (stereo not shown) [Compound A50] | 92 |  |  | MIC (M. tuberculosis H37Rv [2]; [9]): > 6.25 µg/mL
CCOC(=O)Nc1cc2nc(-c3ccccc3)c(-c3ccccc3)nc2c(NC(=O)OCC)n1 [Compound A51] | 92 |  | > 6.25 | 
CCOC(=O)Nc1cc2[nH]c(-c3ccccc3)nc2c(NC(c2ccccc2)c2ccccc2)n1 [Compound A52] | 92 | > 200 | 12.5 (≈ 27 µM) | 
CCOC(=O)Nc1cc2c(c(N)n1)N=C(CN(C)c1ccccc1)CN2 [Compound A53] | 92 | 0.41 (≈ 1.16 µM) | 12.5 (≈ 35.3 µM) | 
CCOC(=O)Nc1cc2c(c(N)n1)N=C(c1ccccc1)C(c1ccccc1)O2 (stereo not shown) [Compound A55] | 90 |  | 6.25 (≈ 16.1 µM) | 
CCOC(=O)Nc1cc2c(c(N)n1)N=C(c1ccccc1)[C@H](C)O2 [Compound A56] | 90 |  | 12.5 (≈ 38.3 µM) | 
CC[C@@H](CO)NCCN[C@@H](CC)CO [Ethambutol, ethambutol, reference compound] |  |  |  | MIC (M. tuberculosis H37Ra): 2 µg/mL (≈ 9.79 µM)
CCOC(=O)Nc1cc(NC(C)C(O)COc2ccccc2)c(N)c(N)n1 (stereo not shown) [SRI-7405, [5,6-Diamino-4-(2-hydroxy-1-methyl-3-phenoxy-propylamino)-pyridin-2-yl]-carbamic acid ethyl ester] |  |  |  | inhibition of growth at 12.5 µg/mL (M. tuberculosis H37Rv [1]): 97%; activity against M. tuberculosis H37Rv in the primary screen (M. tuberculosis H37Rv [1]): demonstrated activity; MIC99 (M. tuberculosis H37Rv [2]; [5]): 12.5 µg/mL; IC50 (Vero cells; [6]): > 1000 µg/mL
CCOC(=O)Nc1cc2c(c(N)n1)N=C(c1ccccc1)CCN2 [SRI-7614, (1-Amino-8-phenyl-6,7-dihydro-5H-2,5,9-triaza-benzocyclohepten-3-yl)-carbamic acid ethyl ester] |  |  |  | inhibition of growth at 12.5 µg/mL (M. tuberculosis H37Rv [1]): 100%; activity against M. tuberculosis H37Rv in the primary screen (M. tuberculosis H37Rv [1]): demonstrated activity; MIC99 (M. tuberculosis H37Rv [2]; [9]): 6.25 µg/mL; MIC99 (M. tuberculosis H37Rv [2]; Mycobacterium tuberculosis, H37RV, read-out: Screen 2 MIC99): 6.25 µg/mL; MIC99 (M. tuberculosis H37Rv [2]; Mycobacterium tuberculosis, M. tuberculosis H37Rv, read-out: MIC99): 19 µM; IC50 (Vero cells; [6]): > 200 µg/mL; IC50 (Vero cells; Vero cells, read-out: IC50): > 200 µg/mL; IC50 (M. tuberculosis FtsZ [3]): 60 µM; inhibition at 100 µM (M. tuberculosis FtsZ [4]): 25%; IC50 (bovine tubulin): 4 µM
